Assay results: ChEMBL document CHEMBL3885861, “Open TG-GATES”

Organism: Rattus norvegicus
Assay: Open TG-GATES - Regimen: Daily Repeat
Format: toxicity, organism-based, Sprague-Dawley
Parameters: regimen Daily Repeat, gender Male, age 6 weeks
Conditions: in vivo, iv, route intravenous injection; for APTT / Bas / Eos / Fbg / Hb / Ht / Lym / MCH / MCHC / MCV / Mono / Neu / PT / Plat / RBC / Ret / WBC: tissue Blood; for KIDNEY_L / KIDNEY_R / KIDNEY_TOTAL: tissue Kidney; for LIVER: tissue Liver; for A/G / ALP / ALT / AST / BUN / CRE / Ca / Cl / DBIL / GLC / IP / K / LDH / Na / PL / RALB / TBIL / TC / TG / TP / gamma-GTP: tissue Plasma
[1] = 0 mg/kg, 72 h, dose level Control, time 3 day
[2] = 0 mg/kg, […], dose level Control, time 7 day
[3] = 0 mg/kg, […], dose level Control, time 14 day
[4] = 0 mg/kg, […], dose level Control, time 28 day
[5] = 4 mg/kg, 72 h, dose level Low, time 3 day
[6] = 4 mg/kg, […], dose level Low, time 7 day
[7] = 4 mg/kg, […], dose level Low, time 14 day
[8] = 4 mg/kg, […], dose level Low, time 28 day

## CN(C)c1ncnc2c1ncn2[C@@H]1O[C@H](CO)[C@@H](N)[C@H]1O [PUROMYCIN AMINONUCLEOSIDE]
[1]
  TERMINAL_BW: 230.5 g
  APTT: 22.1 s
  Bas: 0%
  Eos: 1%
  Fbg: 290.4 mg/dL
  Hb: 12.9 g/dL
  Ht: 37.6%
  Lym: 76.8%
  MCH: 21.1 pg
  MCHC: 34.2%
  MCV: 61.7 fL
  Mono: 2.6%
  Neu: 18.8%
  PT: 16.1 s
  Plat: 127.4 x10_4/uL
  RBC: 610 x10_4/ul
  Ret: 5.7%
  WBC: 113.8 x10_2/uL
  KIDNEY_L: 1 g
  KIDNEY_R: 1 g
  KIDNEY_TOTAL: 2 g
  LIVER: 10.3 g
  A/G: 1.3
  ALP: 1374.2 IU/L
  ALT: 40.6 IU/L
  AST: 74 IU/L
  BUN: 17.2 mg/dL
  CRE: 0.2 mg/dL
  Ca: 10.9 mg/dL
  Cl: 106.6 meq/L
  DBIL: 0 mg/dL
  GLC: 195.8 mg/dL
  IP: 6.8 mg/dL
  K: 4.7 meq/L
  LDH: 183.8 IU/L
  Na: 142.2 meq/L
  PL: 141.6 mg/dL
  RALB: 3.1 g/dL
  TBIL: 0.008 mg/dL
  TC: 73.2 mg/dL
  TG: 95.2 mg/dL
  TP: 5.4 g/dL
  gamma-GTP: 1.8 IU/L
[2]
  TERMINAL_BW: 262.2 g
  APTT: 22.5 s
  Bas: 0%
  Eos: 1%
  Fbg: 274.8 mg/dL
  Hb: 13.7 g/dL
  Ht: 39.4%
  Lym: 80.4%
  MCH: 21.3 pg
  MCHC: 34.9%
  MCV: 61 fL
  Mono: 2%
  Neu: 15.6%
  PT: 16 s
  Plat: 111 x10_4/uL
  RBC: 645.6 x10_4/ul
  Ret: 4.8%
  WBC: 97.9 x10_2/uL
  KIDNEY_L: 1 g
  KIDNEY_R: 1.1 g
  KIDNEY_TOTAL: 2.1 g
  LIVER: 12.2 g
  A/G: 1.2
  ALP: 1257.2 IU/L
  ALT: 35.4 IU/L
  AST: 63 IU/L
  BUN: 17.6 mg/dL
  CRE: 0.2 mg/dL
  Ca: 10.7 mg/dL
  Cl: 105.6 meq/L
  DBIL: 0 mg/dL
  GLC: 210.6 mg/dL
  IP: 7.3 mg/dL
  K: 4 meq/L
  LDH: 167.4 IU/L
  Na: 142 meq/L
  PL: 141.6 mg/dL
  RALB: 3 g/dL
  TBIL: 0.018 mg/dL
  TC: 67.2 mg/dL
  TG: 108.8 mg/dL
  TP: 5.5 g/dL
  gamma-GTP: 1.4 IU/L
[3]
  TERMINAL_BW: 322.5 g
  APTT: 22 s
  Bas: 0%
  Eos: 0.8%
  Fbg: 293.8 mg/dL
  Hb: 14 g/dL
  Ht: 39.5%
  Lym: 79.4%
  MCH: 20.6 pg
  MCHC: 35.5%
  MCV: 58.3 fL
  Mono: 3.2%
  Neu: 15%
  PT: 16.3 s
  Plat: 109.5 x10_4/uL
  RBC: 679 x10_4/ul
  Ret: 3.4%
  WBC: 120 x10_2/uL
  KIDNEY_L: 1.2 g
  KIDNEY_R: 1.2 g
  KIDNEY_TOTAL: 2.4 g
  LIVER: 13.6 g
  A/G: 1.3
  ALP: 1494.8 IU/L
  ALT: 36.8 IU/L
  AST: 69.4 IU/L
  BUN: 19.2 mg/dL
  CRE: 0.2 mg/dL
  Ca: 10.9 mg/dL
  Cl: 104.6 meq/L
  DBIL: 0 mg/dL
  GLC: 204.2 mg/dL
  IP: 7.2 mg/dL
  K: 4.3 meq/L
  LDH: 176.8 IU/L
  Na: 141.6 meq/L
  PL: 144.4 mg/dL
  RALB: 3.1 g/dL
  TBIL: 0.006 mg/dL
  TC: 65.8 mg/dL
  TG: 119.8 mg/dL
  TP: 5.6 g/dL
  gamma-GTP: 2 IU/L
[4]
  TERMINAL_BW: 396.1 g
  APTT: 25.7 s
  Bas: 0%
  Eos: 1%
  Fbg: 299.6 mg/dL
  Hb: 15.2 g/dL
  Ht: 42.3%
  Lym: 74.6%
  MCH: 19.6 pg
  MCHC: 35.8%
  MCV: 54.8 fL
  Mono: 3.4%
  Neu: 19.6%
  PT: 16.3 s
  Plat: 105.3 x10_4/uL
  RBC: 772.2 x10_4/ul
  Ret: 2.2%
  WBC: 111.8 x10_2/uL
  KIDNEY_L: 1.3 g
  KIDNEY_R: 1.3 g
  KIDNEY_TOTAL: 2.7 g
  LIVER: 14.9 g
  A/G: 1
  ALP: 1115.6 IU/L
  ALT: 31 IU/L
  AST: 60.5 IU/L
  BUN: 18.6 mg/dL
  CRE: 0.2 mg/dL
  Ca: 10.4 mg/dL
  Cl: 104.2 meq/L
  DBIL: 0 mg/dL
  GLC: 184.8 mg/dL
  IP: 6.1 mg/dL
  K: 4.2 meq/L
  LDH: 174 IU/L
  Na: 142.6 meq/L
  PL: 133.4 mg/dL
  RALB: 3.1 g/dL
  TBIL: 0.01 mg/dL
  TC: 68.2 mg/dL
  TG: 101.2 mg/dL
  TP: 6.1 g/dL
  gamma-GTP: 2 IU/L
[5]
  TERMINAL_BW: 232.9 g
  APTT: 20.8 s
  Bas: 0%
  Eos: 1%
  Fbg: 318.6 mg/dL
  Hb: 13.1 g/dL
  Ht: 38.3%
  Lym: 78.6%
  MCH: 21.3 pg
  MCHC: 34.3%
  MCV: 62.1 fL
  Mono: 3%
  Neu: 16.2%
  PT: 15.9 s
  Plat: 136.9 x10_4/uL
  RBC: 616 x10_4/ul
  Ret: 5.3%
  WBC: 98.6 x10_2/uL
  KIDNEY_L: 1 g
  KIDNEY_R: 1 g
  KIDNEY_TOTAL: 1.9 g
  LIVER: 10.2 g
  A/G: 1.3
  ALP: 1424.8 IU/L
  ALT: 40.8 IU/L
  AST: 73.4 IU/L
  BUN: 17.4 mg/dL
  CRE: 0.2 mg/dL
  Ca: 11.1 mg/dL
  Cl: 104.2 meq/L
  DBIL: 0 mg/dL
  GLC: 189.4 mg/dL
  IP: 7.6 mg/dL
  K: 4.4 meq/L
  LDH: 200.6 IU/L
  Na: 141.6 meq/L
  PL: 149.2 mg/dL
  RALB: 3 g/dL
  TBIL: 0.02 mg/dL
  TC: 76 mg/dL
  TG: 102.2 mg/dL
  TP: 5.5 g/dL
  gamma-GTP: 1.2 IU/L
[6]
  TERMINAL_BW: 256.3 g
  APTT: 21 s
  Bas: 0%
  Eos: 1.4%
  Fbg: 282.8 mg/dL
  Hb: 13.4 g/dL
  Ht: 38.8%
  Lym: 76.4%
  MCH: 20.5 pg
  MCHC: 34.4%
  MCV: 59.4 fL
  Mono: 2%
  Neu: 19.2%
  PT: 15.9 s
  Plat: 118.6 x10_4/uL
  RBC: 654.8 x10_4/ul
  Ret: 3.7%
  WBC: 112.4 x10_2/uL
  KIDNEY_L: 1 g
  KIDNEY_R: 1.1 g
  KIDNEY_TOTAL: 2.1 g
  LIVER: 11 g
  A/G: 1.2
  ALP: 1296.4 IU/L
  ALT: 37.8 IU/L
  AST: 67.8 IU/L
  BUN: 17 mg/dL
  CRE: 0.2 mg/dL
  Ca: 10.6 mg/dL
  Cl: 107.2 meq/L
  DBIL: 0 mg/dL
  GLC: 180.6 mg/dL
  IP: 6.7 mg/dL
  K: 4.1 meq/L
  LDH: 149.6 IU/L
  Na: 142.6 meq/L
  PL: 139.4 mg/dL
  RALB: 3 g/dL
  TBIL: 0.014 mg/dL
  TC: 73.4 mg/dL
  TG: 87.8 mg/dL
  TP: 5.5 g/dL
[7]
  TERMINAL_BW: 310.3 g
  APTT: 23.5 s
  Bas: 0%
  Eos: 0.8%
  Fbg: 303.4 mg/dL
  Hb: 13.6 g/dL
  Ht: 38.9%
  Lym: 77.8%
  MCH: 20.7 pg
  MCHC: 35%
  MCV: 59.1 fL
  Mono: 2.4%
  Neu: 18%
  PT: 16.3 s
  Plat: 133.5 x10_4/uL
  RBC: 658 x10_4/ul
  Ret: 4.7%
  WBC: 105.4 x10_2/uL
  KIDNEY_L: 1.2 g
  KIDNEY_R: 1.3 g
  KIDNEY_TOTAL: 2.5 g
  LIVER: 12.6 g
[8]
  TERMINAL_BW: 371.4 g
  APTT: 23.1 s
  Bas: 0%
  Eos: 1.6%
  Fbg: 538.4 mg/dL
  Hb: 14.5 g/dL
  Ht: 40%
  Lym: 72.8%
  MCH: 20.2 pg
  MCHC: 36.3%
  MCV: 55.6 fL
  Mono: 3.2%
  Neu: 21.8%
  PT: 14.6 s
  Plat: 134.3 x10_4/uL
  RBC: 719.6 x10_4/ul
  Ret: 2.5%
  WBC: 156.1 x10_2/uL
  KIDNEY_L: 1.5 g
  KIDNEY_R: 1.4 g
  KIDNEY_TOTAL: 2.9 g
  LIVER: 16.8 g
